In ChEMBL document CHEMBL2010710, “Flavimycins A and B, dimeric 1,3-dihydroisobenzofurans with peptide deformylase inhibitory activity from Aspergillus flavipes” (J Nat Prod, 2012):
Converted amounts (≈) assume the structure as drawn.

Legend:
[1] = target: T1, Peptide deformylase (Staphylococcus aureus) (UniProt P68826); test: (§1) Inhibition of Staphylococcus aureus peptide deformylase using N-formylmethionine-alanine-serine as substrate by spectrophotometry
T1 sequence (whole entry): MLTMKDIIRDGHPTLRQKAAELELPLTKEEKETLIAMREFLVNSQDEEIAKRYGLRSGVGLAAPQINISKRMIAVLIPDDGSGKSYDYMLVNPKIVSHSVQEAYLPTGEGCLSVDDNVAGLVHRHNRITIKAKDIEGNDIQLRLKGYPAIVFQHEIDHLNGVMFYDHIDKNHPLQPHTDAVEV

[2] = target: T2, Peptide deformylase (Staphylococcus aureus, UniProt P68826); test: as §1
T2 sequence (P68826 whole entry): T1 sequence (whole entry)

[3] = tested on: Staphylococcus aureus; test: Antibacterial activity against Staphylococcus aureus RN4220 after 18 hrs by broth microdilution method; assay type: functional; conditions: RN4220, 18 h
[4] = tested on: Staphylococcus aureus; test: Antibacterial activity against methicillin-resistant Staphylococcus aureus CCARM 3167 after 18 hrs by broth microdilution method; assay type: functional; conditions: CCARM 3167, 18 h
[5] = tested on: Staphylococcus aureus; test: Antibacterial activity against quinolone-resistant Staphylococcus aureus CCARM 3505 after 18 hrs by broth microdilution method; assay type: functional; conditions: CCARM 3505, 18 h

Structure (SMILES)	inhibition [1]	IC50 [2] [µM]	MIC [3] [µg/mL]	MIC [4] [µg/mL]	MIC [5] [µg/mL]
Cc1c(O)c(O)c(O)c2c1CO[C@H]2[C@H]1OC(O)c2c(C)c(O)c(O)c(O)c21 (mixture of isomers) [FLAVIMYCIN A]	Dose-dependent effect	35.8	32	32	32
COCc1c(O)c(O)c(O)c2c1CO[C@H]2[C@H]1OC(O)c2c(C)c(O)c(O)c(O)c21 (mixture of isomers) [FLAVIMYCIN B]	Dose-dependent effect	100	64	64	64
CCCCC[C@H](CC(=O)NO)C(=O)N[C@H](C(=O)N1CCC[C@H]1CO)C(C)C [ACTINONIN]		0.02	4 (≈ 10.4 µM)	4 (≈ 10.4 µM)	4 (≈ 10.4 µM)
